Reference: ChEMBL document CHEMBL5579840, “Optimization of diastereomeric dihydropyridines as antimalarials” (Eur J Med Chem, 2024)
The source made the active and inactive calls. The rule behind the calls is not given here.

Tests used:
Plasmodium berghei [1] = experiment: Antimalarial activity against liver stage Plasmodium berghei sporozoites expressing luciferase infected in human HepG2 cells; assay type: functional, organism-based
Plasmodium berghei [2] = experiment: Antiplasmodial activity against Plasmodium berghei KBG-173 infected in male mouse assessed as inhibition of parasitemia at 50 mg/kg, po administered as single dose on day 1 post exposure and measured on day 3 post exposure relative to control; assay type: functional; settings: KBG-173, 72 h, time 3 day
Plasmodium berghei [3] = experiment: Antiplasmodial activity against Plasmodium berghei KBG-173 infected in male mouse assessed as inhibition of parasitemia at 50 mg/kg, po administered as single dose on day 1 post exposure and measured on day 6 post exposure relative to control; assay type: functional; settings: KBG-173, 72 h, time 3 day
Plasmodium falciparum [4] = experiment: Antimalarial activity against chloroquine-sensitive Plasmodium falciparum 3D7 infected in erythroctes incubated for 72 hrs by SYBR green 1 based spectrofluorometer; assay type: functional, organism-based, Erythrocyte
Plasmodium falciparum [5] = experiment: Antimalarial activity against chloroquine-resistant Plasmodium falciparum K1 infected in erythroctes incubated for 72 hrs by SYBR green 1 based spectrofluorometer; assay type: functional, organism-based, Erythrocyte
Plasmodium falciparum [6] = experiment: Antiplasmodial activity against chloroquine-sensitive Plasmodium falciparum 3D7; assay type: functional, organism-based
Plasmodium falciparum [7] = experiment: Antimalarial activity against chloroquine and pyrimethamine-resistant Plasmodium falciparum W2 infected in erythroctes incubated for 72 hrs by SYBR green 1 based spectrofluorometer; assay type: functional, organism-based; settings: for EC50: W2, 72 h
Plasmodium falciparum [8] = experiment: Antimalarial activity against chloroquine,pyrimethamine,mefloquine and atovaquine-resistant Plasmodium falciparum TM90-C2B infected in erythroctes incubated for 72 hrs by SYBR green 1 based spectrofluorometer; assay type: functional, organism-based
Plasmodium falciparum [9] = experiment: Antimalarial activity against Plasmodium falciparum W2 infected in RBC assessed as parasitemia at 700 nM measured on day 4 by microscopic analysis relative to control; assay type: functional; settings: time 4 day
Plasmodium falciparum [10] = experiment: Antimalarial activity against Plasmodium falciparum W2 infected in RBC assessed as inhibition of parasite growth incubated for 72 hrs by YOYO1 staining based LSR II flow cytometer; assay type: functional, organism-based; settings: W2, Erythrocyte
Plasmodium falciparum [11] = experiment: Antimalarial activity against Plasmodium falciparum W2 infected in RBC assessed as inhibition of growth incubated for 22 days by YOYO1 staining based LSR II flow cytometer; assay type: functional, organism-based; settings: W2, Erythrocyte, 528 h
Plasmodium falciparum [12] = experiment: Fold resistance, ratio of EC50 for antiplasmodial activity against Plasmodium falciparum W2 infected in RBC assessed as inhibition of parasite growth incubated for 22 days to EC50 for antiplasmodial activity against Plasmodium falciparum W2 infected in RBC assessed as inhibition of parasite growth incubated for 72 hrs; assay type: functional
Plasmodium falciparum [13] = experiment: Antimalarial activity against Plasmodium falciparum W2 infected in RBC assessed as reduction in parasitemia at 700 nM measured immediately by YOYO1 staining based LSR II flow cytometer; assay type: functional, organism-based
[14] = Cytotoxicity against mouse J774.A1 cells; assay type: toxicity, cell-based

SMILES | inhibition in vivo at 50 mg/kg (Plasmodium berghei [2]) | inhibition in vivo at 50 mg/kg (Plasmodium berghei [3]) | EC50 (Plasmodium falciparum [4]; erythrocyte) | EC50 (Plasmodium falciparum [5]; erythrocyte) | other results
COCC1=C(C(=O)OC)C(c2ccc(Cl)cc2C)C2=C(CC(c3ccc(OC)c(OC)c3)CC2=O)N1 (stereo in doubt; 51B) [listing 1 of 2 here] | – | – | – | – | Activity (Plasmodium berghei [1]): inactive
CCOC(=O)C1=C(C)NC2=C(C(=O)CC(c3ccc(Cl)c(OC)c3)C2)C1c1ccccc1Cl (stereo in doubt; 39B) [listing 1 of 2 here] | < 10% | < 10% | 18.5 nM | 22.3 nM | –
CCOc1ccc(N(C(C)=O)C2=C(N(C)C)C(=O)c3ccccc3C2=O)cc1 | – | – | – | – | EC50 (Plasmodium falciparum [6]): < 50 nM
CCCC1=C(C(=O)OCC)C(c2ccccc2Cl)C2=C(CC(c3ccc(OC)c(OC)c3)CC2=O)N1 (stereo in doubt; 43B) | < 10% | < 10% | 0.8 nM | 1.3 nM | EC50 (Plasmodium falciparum [7]): 3 nM; EC50 (Plasmodium falciparum [8]): 4.4 nM
CCCC1=C(C(=O)OCC)C(c2ccc(Cl)cc2C)C2=C(CC(c3ccc(OC)c(OC)c3)CC2=O)N1 (stereo in doubt; 44B) | 34% | 6.76% | 3.4 nM | 11.1 nM | –
CCOC(=O)C1=C(C)NC2=C(C(=O)OC(c3ccc(OC)c(OC)c3)C2)C1c1ccc(Cl)cc1C (stereo in doubt; 38B) | < 10% | < 10% | 10.6 nM | 29.1 nM | –
CCCC1=C(C(=O)OCC)C(c2ccccc2Cl)C2=C(CC(c3ccc(OC)c(OC)c3)OC2=O)N1 (stereo in doubt; 32B) | < 10% | < 10% | 16.1 nM | 9.2 nM | EC50 (Plasmodium falciparum [7]): < 100 nM; EC50 (Plasmodium falciparum [8]): < 100 nM
CCN(CC)Cc1cc(Nc2ccnc3cc(Cl)ccc23)ccc1O [AMODIAQUINE] | 100% | 100% | – | – | –
CCOC(=O)C1=C(C)NC2=C(C(=O)OC(c3ccc(Cl)c(OC)c3)C2)C1c1ccc(Cl)cc1C (stereo in doubt; 42B) | 34% | 5.83% | 58 nM | 38.4 nM | –
CCCC1=C(C(=O)OCC)C(c2ccc(Cl)cc2C)C2=C(CC(c3ccc(OC)c(OC)c3)OC2=O)N1 (stereo in doubt; 45B) | < 10% | < 10% | 5.1 nM | 3.9 nM | –
COc1cc(OC)c(NC(=O)[C@H]2c3ccccc3C(=O)N(CC(C)C)[C@@H]2c2cccs2)cc1Cl | – | – | – | – | EC50 (Plasmodium falciparum [6]): < 50 nM
CCCC1=C(C(=O)OCC)C(c2ccc(Cl)cc2C)C2=C(CC(c3ccc(Cl)c(OC)c3)CC2=O)N1 (stereo in doubt; 46B) | < 10% | < 10% | 10.4 nM | 19.8 nM | –
CCOC(=O)C1=C(C)NC2=C(C(=O)OC(c3ccc(OC)c(OC)c3)C2)C1c1ccccc1Cl (stereo in doubt; 3B) [listing 1 of 2 here] | – | – | – | – | Activity (Plasmodium falciparum [7]): Active; Activity (Plasmodium berghei [1]): inactive; Activity (Plasmodium falciparum [8]): Active
COCC1=C(C(=O)OC)C(c2ccc(Cl)cc2C)C2=C(CC(c3ccc(OC)c(OC)c3)CC2=O)N1 (stereo in doubt; 51B) [listing 2 of 2 here] | 100% | < 10% | 2.5 nM | 6.2 nM | –
CCOC(=O)C1=C(C)NC2=C(C(=O)CC(c3ccc(OC)c(OC)c3)C2)C1c1ccc(Cl)cc1C (stereo in doubt; 37B) | < 10% | < 10% | 14.5 nM | 15.9 nM | –
CCCC1=C(C(=O)OCC)C(c2ccc(Cl)cc2C)C2=C(CC(c3ccc(Cl)c(OC)c3)OC2=O)N1 (stereo in doubt; 47B) | < 10% | < 10% | 22.7 nM | 21.5 nM | –
CCOC(=O)C1=C(C)NC2=C(C(=O)OC(c3ccc(OC)c(OC)c3)C2)C1c1ccccc1Cl (stereo in doubt; 3B) [listing 2 of 2 here] | 100% | 77.6% | 260 nM | 53.9 nM | –
CCOC(=O)C1=C(C)NC2=C(C(=O)OC(c3ccc(OC)c(OC)c3)C2)C1c1ccc(Cl)cc1 (stereo in doubt; 5B) | – | – | – | – | Activity (Plasmodium falciparum [7]): Active; Activity (Plasmodium falciparum [8]): Active
CCOC(=O)C1=C(C)NC2=C(C(=O)CC(c3ccc(Cl)c(OC)c3)C2)C1c1ccc(Cl)cc1C (stereo in doubt; 41B) | < 10% | < 10% | 9.4 nM | 9.7 nM | –
CCOC(=O)C1=C(C)NC2=C(C(=O)OC(c3ccc(Cl)c(OC)c3)C2)C1c1ccccc1Cl (stereo in doubt; 40B) | 66% | < 10% | 135 nM | 217 nM | –
CCCOC(=O)C1=C(C)NC2=C(C(=O)CC(c3ccc(OC)c(OC)c3)C2)C1c1ccccc1F (configuration not stated) | – | – | – | – | Activity (Plasmodium falciparum [9]): 0%; EC50 (Plasmodium falciparum [10]): 8.4 nM; EC50 (Plasmodium falciparum [11]): 2610 nM; EC50 (Plasmodium falciparum [6]): < 50 nM; Ratio EC50 (Plasmodium falciparum [12]): 311; Activity (Plasmodium falciparum [13]): Active
CCOC(=O)C1=C(C)NC2=C(C(=O)OC(c3ccc(OC)c(OC)c3)C2)C1c1ccccc1C (stereo in doubt; 6B) | – | – | – | – | Activity (Plasmodium falciparum [7]): Active; Activity (Plasmodium falciparum [8]): Active
CCOC(=O)C1=C(C)NC2=C(C(=O)OC(c3ccc(OC)c(OC)c3)C2)C1c1cccc(Cl)c1 (configuration not stated) | – | – | – | – | EC50 [14]: > 20000 nM; EC50 (Plasmodium falciparum [4]; Plasmodium falciparum, 3D7, Erythrocyte, 72 h): > 10000 nM; EC50 (Plasmodium falciparum [5]; Plasmodium falciparum, K1, Erythrocyte, 72 h): > 10000 nM
CCOC(=O)C1=C(C)NC2=C(C(=O)CC(c3ccc(Cl)c(OC)c3)C2)C1c1ccccc1Cl (stereo in doubt; 39B) [listing 2 of 2 here] | – | – | – | – | Activity (Plasmodium berghei [1]): inactive
